Measured values as given in ChEMBL document CHEMBL4002599, “Structure-based design and synthesis of imidazo[1,2-a]pyridine derivatives as novel and potent Nek2 inhibitors with in vitro and in vivo antitumor activities” (Eur J Med Chem, 2017).
pIC50: −log10 of the molar value. Calls of active or inactive are those of the source. The rule behind the calls is not given here.

Experiments:
[1] = system: MGC-803; test: Cytotoxicity against human MGC803 cells measured after 72 hrs by MTT assay; type: functional, cell-based; conditions: MGC-803, 72 h
[2] = target: T1, Serine/threonine-protein kinase Nek2 (Homo sapiens, UniProt P51955); test: Inhibition of N-terminal His6-tagged full-length recombinant human NEK2 expressed in baculovirus infected sf21 cells using biotin labelled-STK-3 substrate measured after 60 mins by HTRF assay
T1 sequence (P51955 whole entry): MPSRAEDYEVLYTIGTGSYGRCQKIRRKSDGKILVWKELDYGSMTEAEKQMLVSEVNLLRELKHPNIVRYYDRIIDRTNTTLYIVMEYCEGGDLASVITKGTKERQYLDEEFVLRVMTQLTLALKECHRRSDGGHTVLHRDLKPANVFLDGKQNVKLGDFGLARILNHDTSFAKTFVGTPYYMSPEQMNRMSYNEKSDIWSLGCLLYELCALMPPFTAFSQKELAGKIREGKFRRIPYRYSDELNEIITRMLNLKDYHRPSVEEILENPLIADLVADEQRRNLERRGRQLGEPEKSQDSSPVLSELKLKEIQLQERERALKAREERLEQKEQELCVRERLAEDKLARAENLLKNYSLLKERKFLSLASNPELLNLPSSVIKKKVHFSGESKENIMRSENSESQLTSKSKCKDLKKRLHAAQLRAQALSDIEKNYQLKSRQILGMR

[3] = system: Rattus norvegicus; test: AUC (0 to t) in Sprague-Dawley rat at 1 mg/kg, iv administered as bolus dose by LC-MS/MS method; type: ADME, organism-based; conditions: in vivo
[4] = system: HCT-116; test: Induction of apoptosis in human HCT116 cells assessed as necrotic cells at 1 uM measured after 24 hrs by Annexin-V/PI staining based flow cytometry (reference value: 0.4%); type: functional
[5] = target: Dual specificity tyrosine-phosphorylation-regulated kinase 1A (Homo sapiens, UniProt Q13627); test: Inhibition of DYRK1A (unknown origin)
[6] = system: HCT-116; test: Cytotoxicity against human HCT116 cells measured after 72 hrs by MTT assay; type: functional, cell-based; conditions: HCT-116, 72 h
[7] = system: Rattus norvegicus; test: AUC (0 to infinity) in Sprague-Dawley rat at 1 mg/kg, iv administered as bolus dose by LC-MS/MS method; type: ADME, organism-based; parameters: dose 1 mg/kg, time infinity, route intravenous; conditions: in vivo
[8] = system: HCT-116; test: Induction of apoptosis in human HCT116 cells assessed as early apoptotic cells at 0.5 uM measured after 24 hrs by Annexin-V/PI staining based flow cytometry (reference value: 4%); type: functional
[9] = target: Tyrosine-protein kinase ABL1 (Homo sapiens, UniProt P00519); test: Inhibition of ABL (unknown origin)
[10] = target: Cyclin-dependent kinase 4 (Homo sapiens, UniProt P11802); test: Inhibition of CDK4 (unknown origin)
[11] = target: RAC-alpha serine/threonine-protein kinase (Homo sapiens, UniProt P31749); test: Inhibition of AKT1 (unknown origin)
[12] = target: Glycogen synthase kinase-3 beta (Homo sapiens, UniProt P49841); test: Inhibition of GSK3beta (unknown origin)
[13] = system: Bel-7402; test: Cytotoxicity against human Bel7402 cells measured after 72 hrs by MTT assay; type: functional, cell-based; conditions: Bel-7402, 72 h
[14] = system: HCT-116; test: Induction of apoptosis in human HCT116 cells assessed as late apoptotic cells at 0.5 uM measured after 24 hrs by Annexin-V/PI staining based flow cytometry (reference value: […]); type: functional
[15] = system: HCT-116; test: Induction of apoptosis in human HCT116 cells assessed as late apoptotic cells at 1 uM measured after 24 hrs by Annexin-V/PI staining based flow cytometry (reference value: […]); type: functional
[16] = target: T2, Aurora kinase A (Homo sapiens, UniProt O14965); test: Inhibition of Aurora A (unknown origin)
T2 sequence (O14965 whole entry): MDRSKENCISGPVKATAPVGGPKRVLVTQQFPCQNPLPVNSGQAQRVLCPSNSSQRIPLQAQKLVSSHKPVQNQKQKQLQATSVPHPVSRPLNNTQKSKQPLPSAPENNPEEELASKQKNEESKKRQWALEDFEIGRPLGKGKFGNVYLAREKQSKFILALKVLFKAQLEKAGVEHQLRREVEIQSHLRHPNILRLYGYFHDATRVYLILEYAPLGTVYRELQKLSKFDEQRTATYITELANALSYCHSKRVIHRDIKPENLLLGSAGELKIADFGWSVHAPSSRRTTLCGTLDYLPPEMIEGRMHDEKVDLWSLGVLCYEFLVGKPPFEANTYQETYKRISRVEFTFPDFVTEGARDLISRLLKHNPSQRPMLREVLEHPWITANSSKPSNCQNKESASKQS

[17] = Clearance in Sprague-Dawley rat at 1 mg/kg, iv administered as bolus dose by LC-MS/MS method; type: ADME, organism-based; conditions: in vivo
[18] = MRT (0 to t) in Sprague-Dawley rat at 1 mg/kg, iv administered as bolus dose by LC-MS/MS method; type: ADME, organism-based; conditions: in vivo
[19] = target: Cyclin-dependent kinase 2 (Homo sapiens, UniProt P24941); test: Inhibition of CDK2 (unknown origin)
[20] = system: HCT-116; test: Induction of apoptosis in human HCT116 cells assessed as necrotic cells at 0.5 uM measured after 24 hrs by Annexin-V/PI staining based flow cytometry (reference value: 0.4%); type: functional
[21] = target: Mitogen-activated protein kinase 14 (Homo sapiens, UniProt Q16539); test: Inhibition of P38alpha (unknown origin)
[22] = target: T3, Serine/threonine-protein kinase Chk1 (Homo sapiens, UniProt O14757); test: Inhibition of CHK1 (unknown origin)
T3 sequence (O14757 whole entry): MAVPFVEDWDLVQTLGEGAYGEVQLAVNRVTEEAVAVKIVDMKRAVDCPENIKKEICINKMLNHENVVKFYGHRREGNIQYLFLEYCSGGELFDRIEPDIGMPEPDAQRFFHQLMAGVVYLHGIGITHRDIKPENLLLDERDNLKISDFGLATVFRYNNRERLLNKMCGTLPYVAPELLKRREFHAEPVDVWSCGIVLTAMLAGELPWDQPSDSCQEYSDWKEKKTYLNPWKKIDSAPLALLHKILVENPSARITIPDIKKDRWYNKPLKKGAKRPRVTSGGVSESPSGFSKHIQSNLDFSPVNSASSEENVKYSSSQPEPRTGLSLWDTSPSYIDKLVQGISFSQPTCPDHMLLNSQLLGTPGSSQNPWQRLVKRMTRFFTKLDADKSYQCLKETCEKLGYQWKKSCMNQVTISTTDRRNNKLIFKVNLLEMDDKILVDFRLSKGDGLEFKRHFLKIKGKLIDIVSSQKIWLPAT

[23] = system: HCT-116; test: Induction of apoptosis in human HCT116 cells assessed as early apoptotic cells at 1 uM measured after 24 hrs by Annexin-V/PI staining based flow cytometry (reference value: 4%); type: functional
[24] = target: MAP kinase-activated protein kinase 2 (Homo sapiens, UniProt P49137); test: Inhibition of MAPKAPK2 (unknown origin)
[25] = Half-life in Sprague-Dawley rat at 1 mg/kg, iv administered as bolus dose by LC-MS/MS method; type: ADME, organism-based; conditions: in vivo
[26] = target: Phosphatidylinositol 4,5-bisphosphate 3-kinase catalytic subunit alpha isoform (Homo sapiens, UniProt P42336); test: Inhibition of PI3Kalpha (unknown origin)
[27] = target: Ribosomal protein S6 kinase alpha-1 (Homo sapiens, UniProt Q15418); test: Inhibition of RSK1 (unknown origin)
[28] = Volume of distribution at steady state in Sprague-Dawley rat at 1 mg/kg, iv administered as bolus dose by LC-MS/MS method; type: ADME, organism-based; conditions: in vivo, read-out: Vdss
[29] = system: HCT-116; test: Antitumor activity against human HCT116 cells xenografted in BALB/c nu/nu mouse assessed as reduction in tumor volume at 20 mg/kg, ip administered twice daily for 21 days; type: functional, organism-based
[30] = system: HCT-116; test: Induction of apoptosis in human HCT116 cells measured after 24 hrs by Annexin-V/PI staining based flow cytometry; type: functional, cell-based
[31] = system: HCT-116; test: Cell cycle arrest in human HCT116 cells assessed as accumulation at G2/M phase at 0.5 to 1 uM measured after 24 hrs by propidium iodide staining based flow cytometry; type: functional
[32] = system: HCT-116; test: Cell cycle arrest in human HCT116 cells assessed as G2/M phase accumulation by measuring >4N DNA content at 0.5 to 1 uM measured after 24 hrs by propidium iodide staining based flow cytometry; type: functional
[33] = system: HCT-116; test: Antitumor activity against human HCT116 cells xenografted in BALB/c nu/nu mouse assessed as tumor growth inhibition at 20 mg/kg, ip administered twice daily for 21 days; type: functional; conditions: HCT-116, ip, read-out: TGI
[34] = system: Mus musculus; test: Toxicity in BALB/c nu/nu mouse assessed as body weight loss at 20 mg/kg, ip administered twice daily for 21 days; type: organism-based; conditions: in vivo

Sequence of Phosphatidylinositol 4,5-bisphosphate 3-kinase catalytic subunit alpha isoform (P42336 whole entry, canonical isoform): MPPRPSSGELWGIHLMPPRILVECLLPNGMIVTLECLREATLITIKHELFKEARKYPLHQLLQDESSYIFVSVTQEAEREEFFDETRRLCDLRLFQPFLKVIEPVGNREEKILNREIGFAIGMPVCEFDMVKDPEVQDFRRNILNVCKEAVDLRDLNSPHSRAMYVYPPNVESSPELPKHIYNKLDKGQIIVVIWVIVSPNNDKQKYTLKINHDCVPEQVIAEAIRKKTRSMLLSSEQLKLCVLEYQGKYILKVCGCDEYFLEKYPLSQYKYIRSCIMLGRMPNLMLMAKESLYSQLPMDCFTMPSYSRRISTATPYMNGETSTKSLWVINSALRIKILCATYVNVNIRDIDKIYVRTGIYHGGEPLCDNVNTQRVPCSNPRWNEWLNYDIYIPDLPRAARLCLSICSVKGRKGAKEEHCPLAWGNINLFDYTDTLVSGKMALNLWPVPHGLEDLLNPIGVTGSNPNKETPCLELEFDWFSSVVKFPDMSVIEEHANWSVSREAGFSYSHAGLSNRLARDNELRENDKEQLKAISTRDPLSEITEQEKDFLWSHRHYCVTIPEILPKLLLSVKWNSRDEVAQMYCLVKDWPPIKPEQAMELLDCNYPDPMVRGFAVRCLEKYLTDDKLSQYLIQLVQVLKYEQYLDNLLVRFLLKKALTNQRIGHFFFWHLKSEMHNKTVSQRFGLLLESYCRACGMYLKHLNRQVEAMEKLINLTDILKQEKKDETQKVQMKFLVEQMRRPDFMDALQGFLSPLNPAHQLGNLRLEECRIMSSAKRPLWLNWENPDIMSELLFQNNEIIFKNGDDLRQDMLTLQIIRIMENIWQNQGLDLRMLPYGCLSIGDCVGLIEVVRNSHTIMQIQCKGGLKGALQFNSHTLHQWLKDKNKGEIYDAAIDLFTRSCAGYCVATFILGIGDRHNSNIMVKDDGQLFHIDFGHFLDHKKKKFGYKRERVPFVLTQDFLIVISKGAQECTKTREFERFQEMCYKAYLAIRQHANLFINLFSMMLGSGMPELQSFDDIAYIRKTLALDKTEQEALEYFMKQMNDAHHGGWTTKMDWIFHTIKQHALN
Sequence of Glycogen synthase kinase-3 beta (P49841 whole entry): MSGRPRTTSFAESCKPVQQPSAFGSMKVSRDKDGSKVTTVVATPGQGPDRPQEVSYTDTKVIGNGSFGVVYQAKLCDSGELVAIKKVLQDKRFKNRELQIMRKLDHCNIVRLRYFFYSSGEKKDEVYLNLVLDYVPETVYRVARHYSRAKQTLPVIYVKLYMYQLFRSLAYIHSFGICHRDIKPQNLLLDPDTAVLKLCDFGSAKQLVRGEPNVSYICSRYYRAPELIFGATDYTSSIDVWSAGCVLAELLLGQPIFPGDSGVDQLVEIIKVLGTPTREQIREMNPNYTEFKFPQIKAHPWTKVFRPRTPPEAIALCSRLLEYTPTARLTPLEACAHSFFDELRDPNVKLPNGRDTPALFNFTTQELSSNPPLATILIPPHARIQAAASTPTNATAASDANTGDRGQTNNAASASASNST
Sequence of Cyclin-dependent kinase 4 (P11802 whole entry): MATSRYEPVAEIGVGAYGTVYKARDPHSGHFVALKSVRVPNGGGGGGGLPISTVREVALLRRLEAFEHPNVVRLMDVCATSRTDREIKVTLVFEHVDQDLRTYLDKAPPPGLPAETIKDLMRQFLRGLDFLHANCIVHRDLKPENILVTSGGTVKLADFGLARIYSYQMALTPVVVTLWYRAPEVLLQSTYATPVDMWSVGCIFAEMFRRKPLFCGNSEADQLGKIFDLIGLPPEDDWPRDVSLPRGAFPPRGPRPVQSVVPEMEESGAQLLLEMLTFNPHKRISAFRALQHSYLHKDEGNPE
Sequence of Mitogen-activated protein kinase 14 (Q16539 whole entry): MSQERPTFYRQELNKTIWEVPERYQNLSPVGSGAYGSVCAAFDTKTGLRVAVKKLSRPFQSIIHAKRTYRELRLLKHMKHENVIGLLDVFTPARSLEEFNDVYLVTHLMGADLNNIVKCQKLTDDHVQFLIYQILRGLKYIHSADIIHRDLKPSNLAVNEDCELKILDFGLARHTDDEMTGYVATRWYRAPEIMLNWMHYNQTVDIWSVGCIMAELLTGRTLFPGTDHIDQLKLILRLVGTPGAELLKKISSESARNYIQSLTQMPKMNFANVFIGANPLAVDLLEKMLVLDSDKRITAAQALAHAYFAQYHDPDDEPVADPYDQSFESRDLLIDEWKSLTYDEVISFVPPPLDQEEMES
Sequence of Ribosomal protein S6 kinase alpha-1 (Q15418 whole entry): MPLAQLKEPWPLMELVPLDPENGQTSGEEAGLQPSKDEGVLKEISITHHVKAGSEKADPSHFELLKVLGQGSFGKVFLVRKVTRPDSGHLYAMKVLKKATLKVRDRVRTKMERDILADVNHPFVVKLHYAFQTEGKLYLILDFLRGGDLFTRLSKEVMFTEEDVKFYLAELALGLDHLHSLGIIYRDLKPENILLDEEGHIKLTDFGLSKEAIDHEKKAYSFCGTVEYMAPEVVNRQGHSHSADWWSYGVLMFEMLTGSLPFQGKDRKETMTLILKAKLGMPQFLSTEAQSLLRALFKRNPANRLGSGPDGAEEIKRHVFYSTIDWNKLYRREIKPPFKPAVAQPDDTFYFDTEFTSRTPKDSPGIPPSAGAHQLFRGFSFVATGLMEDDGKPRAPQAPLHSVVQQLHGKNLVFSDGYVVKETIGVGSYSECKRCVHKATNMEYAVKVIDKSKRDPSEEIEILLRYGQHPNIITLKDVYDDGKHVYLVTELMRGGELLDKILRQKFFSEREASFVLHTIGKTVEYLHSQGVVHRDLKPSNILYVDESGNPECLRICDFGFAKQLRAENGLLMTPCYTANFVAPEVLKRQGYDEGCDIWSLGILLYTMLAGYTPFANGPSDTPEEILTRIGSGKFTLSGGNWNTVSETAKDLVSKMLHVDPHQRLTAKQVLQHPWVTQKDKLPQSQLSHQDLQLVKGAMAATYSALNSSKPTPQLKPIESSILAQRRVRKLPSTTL
Sequence of MAP kinase-activated protein kinase 2 (P49137 whole entry): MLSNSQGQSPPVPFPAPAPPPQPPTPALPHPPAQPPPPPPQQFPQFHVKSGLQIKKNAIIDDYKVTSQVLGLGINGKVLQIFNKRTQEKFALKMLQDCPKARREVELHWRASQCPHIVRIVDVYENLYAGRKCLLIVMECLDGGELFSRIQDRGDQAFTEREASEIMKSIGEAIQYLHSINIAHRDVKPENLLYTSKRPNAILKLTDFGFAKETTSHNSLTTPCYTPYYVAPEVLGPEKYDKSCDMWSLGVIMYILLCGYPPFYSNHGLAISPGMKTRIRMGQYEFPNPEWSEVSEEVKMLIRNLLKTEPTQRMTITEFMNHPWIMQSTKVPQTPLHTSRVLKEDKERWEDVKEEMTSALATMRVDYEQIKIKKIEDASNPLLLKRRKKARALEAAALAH
Sequence of Tyrosine-protein kinase ABL1 (P00519 whole entry): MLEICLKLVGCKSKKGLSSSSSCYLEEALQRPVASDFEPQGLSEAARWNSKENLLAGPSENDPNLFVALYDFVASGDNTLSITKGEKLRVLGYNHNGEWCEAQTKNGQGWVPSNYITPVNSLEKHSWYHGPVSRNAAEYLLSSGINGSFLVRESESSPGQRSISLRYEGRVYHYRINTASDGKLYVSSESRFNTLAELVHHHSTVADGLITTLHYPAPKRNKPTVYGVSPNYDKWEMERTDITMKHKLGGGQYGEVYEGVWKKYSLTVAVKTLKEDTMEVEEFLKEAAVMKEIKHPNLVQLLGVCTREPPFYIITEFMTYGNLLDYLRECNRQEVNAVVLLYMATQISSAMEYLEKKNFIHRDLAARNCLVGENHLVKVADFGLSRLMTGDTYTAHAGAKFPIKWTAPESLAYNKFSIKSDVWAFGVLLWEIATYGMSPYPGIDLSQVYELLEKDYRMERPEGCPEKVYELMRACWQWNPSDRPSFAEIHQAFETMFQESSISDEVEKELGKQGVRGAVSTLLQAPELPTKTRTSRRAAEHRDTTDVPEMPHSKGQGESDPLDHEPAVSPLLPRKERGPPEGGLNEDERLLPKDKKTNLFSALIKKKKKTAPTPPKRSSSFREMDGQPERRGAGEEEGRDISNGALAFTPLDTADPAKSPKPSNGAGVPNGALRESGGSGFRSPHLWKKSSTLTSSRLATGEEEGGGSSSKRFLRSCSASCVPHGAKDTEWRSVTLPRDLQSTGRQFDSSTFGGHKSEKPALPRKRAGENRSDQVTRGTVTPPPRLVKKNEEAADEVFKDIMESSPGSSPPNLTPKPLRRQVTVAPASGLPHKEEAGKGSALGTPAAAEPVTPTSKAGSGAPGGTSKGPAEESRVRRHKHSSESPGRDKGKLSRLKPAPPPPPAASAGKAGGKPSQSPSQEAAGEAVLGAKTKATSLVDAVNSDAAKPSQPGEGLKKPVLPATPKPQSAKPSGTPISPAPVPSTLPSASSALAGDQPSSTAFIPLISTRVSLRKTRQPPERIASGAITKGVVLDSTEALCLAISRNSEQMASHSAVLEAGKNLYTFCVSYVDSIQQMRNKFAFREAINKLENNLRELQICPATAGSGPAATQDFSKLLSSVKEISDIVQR
Sequence of RAC-alpha serine/threonine-protein kinase (P31749 whole entry): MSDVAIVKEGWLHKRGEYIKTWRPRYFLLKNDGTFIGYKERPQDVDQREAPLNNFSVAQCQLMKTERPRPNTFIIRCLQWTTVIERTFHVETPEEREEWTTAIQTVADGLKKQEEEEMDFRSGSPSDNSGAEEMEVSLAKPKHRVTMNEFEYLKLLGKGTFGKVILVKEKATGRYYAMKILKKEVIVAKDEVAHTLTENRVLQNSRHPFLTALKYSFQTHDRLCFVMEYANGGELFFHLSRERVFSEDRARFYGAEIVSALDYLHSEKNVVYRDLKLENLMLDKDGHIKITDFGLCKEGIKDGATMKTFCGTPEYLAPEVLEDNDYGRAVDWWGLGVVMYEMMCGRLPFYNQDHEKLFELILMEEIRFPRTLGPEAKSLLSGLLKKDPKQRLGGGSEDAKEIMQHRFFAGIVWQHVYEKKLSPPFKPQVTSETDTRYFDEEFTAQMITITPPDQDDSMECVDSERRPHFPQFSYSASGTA

SMILES: COc1cc(-c2cnc3cc(N4CCN(C)CC4)ccn23)ccc1C(N)=O
- pIC50 [1]: < 4.52
- pIC50 [2]: 4.71

SMILES: CNC(=O)c1ccc(-c2cnc3cc(N4CCN(C)CC4)ccn23)cc1OC(C)c1ccccc1C(F)(F)F (stereo not drawn)
- pIC50 [2]: 3.71

SMILES: CN1CCN(c2ccn3c(-c4ccc(C(=O)NO)c(OCc5ccccc5C(F)(F)F)c4)cnc3c2)CC1
- pIC50 [1]: 4.77
- pIC50 [2]: 5.00

SMILES: CN(C)CCn1cc(-c2ccn3c(-c4ccc(C(N)=O)c(OCc5cccc(F)c5)c4)cnc3c2)cn1 [listing 1 of 2 here]
- AUCt [3]: 495 ng·h/mL
- Activity [4]: 3.5%
- pIC50 [5]: 8.19
- pIC50 [6]: 6.08
- AUC [7]: 507 ng·h/mL
- Activity [8]: 21.3%
- pIC50 [9]: 7.70
- pIC50 [10]: 6.36
- pIC50 [11]: 6.22
- pIC50 [12]: 7.04
- pIC50 [13]: 5.15
- Activity [14]: 20.1%
- Activity [15]: 26.7%
- pIC50 [16]: 5.28
- clearance [17]: 33.3 mL/min/kg
- MRT last [18]: 1.3 h
- pIC50 [19]: 6.43
- Activity [20]: 2.6%
- pIC50 [21]: < 5.00
- pIC50 [22]: 7.24
- Activity [23]: 27.8%
- pIC50 [24]: < 5.00
- half-life [25]: 1.72 h
- pIC50 [26]: 5.21
- pIC50 [1]: 6.28
- pIC50 [2]: 9.00
- pIC50 [27]: 8.27
- Vd [28]: 2.53 L/kg

SMILES: CN(C)CCn1cc(-c2ccn3c(-c4ccc(C(N)=O)c(OCc5cccc(C(F)(F)F)c5)c4)cnc3c2)cn1
- AUCt [3]: 262 ng·h/mL
- pIC50 [6]: 5.89
- AUC [7]: 268 ng·h/mL
- pIC50 [13]: 5.56
- pIC50 [16]: < 5.00
- clearance [17]: 62.8 mL/min/kg
- MRT last [18]: 1.38 h
- half-life [25]: 1.49 h
- pIC50 [1]: 6.10
- pIC50 [2]: 8.15
- Vd [28]: 5.08 L/kg

SMILES: COC(=O)c1ccc(-c2cnc3cc(N4CCN(C)CC4)ccn23)cc1OC(C)c1ccccc1C(F)(F)F (stereo not drawn)
- pIC50 [2]: 4.37

SMILES: CC(Oc1cc(-c2cnc3cc(N4CCN(C)CC4)ccn23)ccc1C(N)=O)c1ccccc1C(F)(F)F (stereo not drawn)
- pIC50 [1]: 4.91
- pIC50 [2]: 5.66

SMILES: CN(C)CCn1cc(-c2ccn3c(-c4ccc(C(N)=O)c(OCc5cccc(F)c5)c4)cnc3c2)cn1 [listing 2 of 2 here]
- Activity [29]: Active
- Activity [30]: Dose-dependent effect
- Activity [31]: Active
- Activity [32]: Active

SMILES: CN(C)CCn1cc(-c2ccn3c(-c4ccc(C(N)=O)c(OCc5ccccc5)c4)cnc3c2)cn1
- AUCt [3]: 386 ng·h/mL
- AUC [7]: 405 ng·h/mL
- clearance [17]: 42.4 mL/min/kg
- MRT last [18]: 1.68 h
- half-life [25]: 2.42 h
- Vd [28]: 4.06 L/kg

SMILES: CN1CCN(c2ccn3c(-c4ccc(C(N)=O)c(OCc5ccccc5)c4)cnc3c2)CC1
- pIC50 [1]: 5.21
- pIC50 [2]: 5.49

SMILES: CN(C)CCn1cc(-c2ccn3c(-c4ccc(C(N)=O)c(OCc5cccc(F)c5)c4)cnc3c2)cn1.O=C(O)CCC(=O)O.O=C(O)CCC(=O)O
- inhibition in vivo at 20 mg/kg [33]: 36%
- Activity [34]: Non-Toxic

SMILES: C[C@@H](Oc1cc(-c2cnc3cc(N4CCN(C)CC4)ccn23)ccc1C(N)=O)c1ccccc1C(F)(F)F
- pIC50 [1]: 5.50
- pIC50 [2]: 5.92
